Patent US20090082713A1, “METHOD OF ENHANCING IONTOPHORETIC DELIVERY OF A PEPTIDE” (priority 2007, published 2009)
Like-named read-outs stand apart in the source and are kept apart here.

Columns and labels:
[1] = In vivo iontophoretic delivery of salmon calcitonin across skin microporated with maltose microneedles, serum SCT by ELISA; parameters: species or system hairless rat; settings: for increase in concentration compared to delivery with microneedles alone: p<0.05; for increase in concentration compared to delivery with microneedles alone / Cmax / total amount of SCT delivered: hairless rat; for Cmax: hairless, rat, serum, topical or ocular, 350 µg, read-out: maximum concentration of SCT in the serum; for total amount of SCT delivered: calculated by WinNonlin
Protocol: • Purpose: To determine the effect of iontophoresis and its combination with microneedles on the in vivo delivery of salmon calcitonin (SCT) as a model peptide. • Methods: Microneedles, iontophoresis and the combination were investigated for their effect on the transdermal delivery of SCT in vivo using the hairless rat. SCT (350 μl of a 1 mg/ml solution in 50 mM citrate buffer, pH 4.0) was placed in a cartridge designed for iontophoresis. Maltose microneedles (500 micron, Texmac Inc.), stacked in three layers, were used to porate the skin prior to the application of the drug with or without iontophoresis. […] Transport of drug across the skin was assessed by collecting blood samples at regular intervals via the tail vein which were analyzed for serum SCT using ELISA. • Results: The maximum concentrations of SCT in the serum were 41.45 pg/ml, 605.21 pg/ml, and 2374.06 pg/ml under microneedles alone, 1 hr iontophoresis alone, and the combination, respectively. When compared to the delivery with microneedles alone, the increase in concentration with iontophoresis alone was 15-fold (p<0.05) and with the combination of microneedles the increase was 57-fold (p<0.05). The total amount of SCT delivered by iontophoresis and its combination with microneedles in the hairless rat was 648.67 ng/kg and 3075.96 ng/kg, respectively, as calculated by WinNonlin. • Conclusion: Iontophoresis or a disruption of the skin barrier by microneedles enabled the transdermal delivery of SCT.

[2] = In vivo delivery of salmon calcitonin using iontophoresis in combination with microporation using titanium needle arrays; parameters: species or system hairless rat; settings: titanium needle array microporation in combination with iontophoresis; 0.5 minutes after administration; FIG. 1C

increase in concentration compared to delivery with microneedles alone ([1]; combination of iontophoresis and microneedles vs microneedles alone): 57 fold | Cmax ([1]; pH 4, transdermal, 1 hr iontophoresis alone (0.2 mA/cm^2), 350 μl of 1 mg/ml SCT, pH 4.0): 0.605 ng/mL | Cmax ([1]; pH 4, transdermal, maltose microneedles alone, 350 μl of 1 mg/ml SCT in 50 mM citrate buffer pH 4.0): 0.0415 ng/mL | Cmax ([1]; transdermal, combination of maltose microneedles and 1 hr iontophoresis (0.2 mA/cm^2)): 2.37 ng/mL | increase in concentration compared to delivery with microneedles alone ([1]; iontophoresis alone vs microneedles alone): 15 fold | total amount of SCT delivered ([1]; iontophoresis alone): 648.67 ng/kg | total amount of SCT delivered ([1]; iontophoresis in combination with microneedles): 3075.96 ng/kg | increase in amount of protein that permeated the skin compared to iontophoresis alone ([1]; microneedle treatment combined with iontophoresis vs iontophoresis alone, hairless rat model): about four | plasma concentration of SCT relative to microporation or iontophoresis alone [2]: about 10 fold
SMILES: CC(C)C[C@H](NC(=O)[C@H](CCCCN)NC(=O)CNC(=O)[C@H](CC(C)C)NC(=O)[C@@H](NC(=O)[C@@H]1CSSC[C@H](N)C(=O)N[C@@H](CO)C(=O)N[C@@H](CC(N)=O)C(=O)N[C@@H](CC(C)C)C(=O)N[C@@H](CO)C(=O)N[C@@H]([C@@H](C)O)C(=O)N1)C(C)C)C(=O)N[C@@H](CO)C(=O)N[C@@H](CCC(N)=O)C(=O)N[C@@H](CCC(=O)O)C(=O)N[C@@H](CC(C)C)C(=O)N[C@@H](Cc1c[nH]cn1)C(=O)N[C@@H](CCCCN)C(=O)N[C@@H](CC(C)C)C(=O)N[C@@H](CCC(N)=O)C(=O)N[C@H](C(=O)N[C@@H](Cc1ccc(O)cc1)C(=O)N1CCC[C@H]1C(=O)N[C@@H](CCCNC(=N)N)C(=O)N[C@H](C(=O)N[C@@H](CC(N)=O)C(=O)N[C@H](C(=O)NCC(=O)N[C@@H](CO)C(=O)NCC(=O)N[C@H](C(=O)N1CCC[C@H]1C(N)=O)[C@@H](C)O)[C@@H](C)O)[C@@H](C)O)[C@@H](C)O [SCT, salmon calcitonin]
